Source: ChEMBL document CHEMBL1201862, “PubChem BioAssay data set” (2004)
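Each compound was tested at five concentrations against cells in 96-well plates for 48 hours. The concentration for 50% growth inhibition is given as GI50.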 Active and inactive are the calls of the source. Rule as the data show it: active = GI50 up to about 1.1 µM and inactive = higher.

Columns and labels:
Test in all cases: NCI tumour cell line growth inhibition, 48 h
[1] = test system: A549
[2] = test system: CAKI-1
[3] = test system: COLO 205
[4] = test system: HL-60
[5] = test system: HT-29
[6] = test system: K562
[7] = test system: M14
[8] = test system: MCF7
[9] = test system: MDA-MB-231
[10] = test system: MDA-N
[11] = test system: NCI-H23
[12] = test system: NCI-H460
[13] = test system: NCI-H522
[14] = test system: OVCAR-5
[15] = test system: RXF 393
[16] = test system: SK-MEL-28
[17] = test system: SN12C
[18] = test system: SNB-75
[19] = test system: UO-31
[20] = test system: EKVX

Measured: GI50

CCN(CC)CCCNc1n[n+]([O-])c2ccccc2[n+]1[O-]
inactive: [1] 12.6 µM | [2] 31.8 µM | [3] 11.2 µM | [4] 3.57 µM | [5] 11.1 µM | [6] 6.93 µM | [7] 22.4 µM | [8] 3.92 µM | [9] 6.01 µM | [10] 11.9 µM | [11] 11.6 µM | [12] 3.99 µM | [13] 8.22 µM | [14] 20.5 µM | [15] 13 µM | [16] 63.1 µM | [17] 4.68 µM | [18] 23.1 µM | [19] 28.6 µM

CCOC(=O)/C(C(=O)Nc1ccc(Cl)cc1)=C(/N)N1CCOCC1
inactive: [1] > 100 µM | [2] > 100 µM | [3] > 100 µM | [20] > 100 µM | [4] > 100 µM | [5] > 100 µM | [6] > 100 µM | [7] > 100 µM | [8] > 100 µM | [9] > 100 µM | [10] > 100 µM | [11] > 100 µM | [12] > 100 µM | [13] > 100 µM | [14] > 100 µM | [15] > 100 µM | [16] > 100 µM | [17] > 100 µM | [18] > 100 µM

CC(=O)OCC1(CNc2nc(N)ncc2C#N)CC(CCc2ccccc2)C1 (stereo not drawn)
inactive: [1] 15.5 µM | [2] 4 µM | [3] 75.3 µM | [20] 6.01 µM | [4] 3.66 µM | [5] > 100 µM | [6] 2.2 µM | [8] 12 µM | [9] 10.4 µM | [10] 28.6 µM | [11] 2.49 µM | [12] 26.8 µM | [13] 20.2 µM | [14] > 100 µM | [15] 27.5 µM | [16] > 100 µM | [17] > 100 µM | [18] 27.4 µM | [19] 10.7 µM

COc1ccc2c(O)c1-c1c(OC)ccc(c1O)SSc1ccc(OC)c(c1O)-c1c(OC)ccc(c1O)SS2
inactive: [1] 24.5 µM | [2] > 100 µM | [3] 19.9 µM | [20] 7.87 µM | [4] 8.15 µM | [5] > 100 µM | [6] 5.2 µM | [7] > 100 µM | [8] > 100 µM | [9] 44.3 µM | [10] > 100 µM | [13] 3.58 µM | [14] 66.4 µM | [15] 16.1 µM | [16] 34.4 µM | [17] > 100 µM | [18] 36.7 µM | [19] 4.21 µM

C[n+]1ccn2c3nc4ccccc4nc3c([O-])c(C#N)c21
inactive: [1] > 29.5 µM | [2] > 100 µM | [3] > 100 µM | [20] > 100 µM | [4] > 100 µM | [5] > 100 µM | [6] > 100 µM | [7] > 100 µM | [8] 88.9 µM | [9] > 100 µM | [10] > 100 µM | [11] > 100 µM | [12] > 10 µM | [13] > 10 µM | [14] > 10 µM | [15] > 65.9 µM | [16] > 100 µM | [17] > 100 µM | [18] > 100 µM | [19] > 100 µM

O=C1N/C(=N/N=C/C(O)C(O)C(O)CO)N/C1=C\c1ccco1 (stereo not drawn)
inactive: [1] 64.6 µM | [2] > 100 µM | [3] > 100 µM | [20] > 100 µM | [4] > 100 µM | [5] > 100 µM | [6] > 100 µM | [7] > 100 µM | [8] > 100 µM | [9] > 100 µM | [10] > 100 µM | [11] > 100 µM | [12] > 100 µM | [13] > 100 µM | [14] > 100 µM | [15] > 100 µM | [16] > 100 µM | [17] > 100 µM | [18] > 100 µM

COc1ccc(C(SCCO)(c2ccc(OC)cc2)c2ccc(OC)cc2)cc1
inactive: [1] 17.7 µM | [2] 20.6 µM | [3] 11.2 µM | [20] 10.7 µM | [4] 21 µM | [5] 17 µM | [6] 3.19 µM | [7] 15.9 µM | [8] 14.8 µM | [9] 19.8 µM | [10] 4.9 µM | [11] 17.7 µM | [12] 15 µM | [13] 12.4 µM | [14] 22.5 µM | [15] 12 µM | [16] 17.9 µM | [17] 17.5 µM | [18] 22 µM | [19] 13 µM

COc1cc(CC(C)NC(C)=O)cc(OC)c1 (stereo not drawn)
inactive: [1] > 100 µM | [2] > 100 µM | [3] > 100 µM | [4] > 100 µM | [5] > 100 µM | [6] > 100 µM | [7] > 100 µM | [8] > 100 µM | [9] > 100 µM | [10] > 100 µM | [11] > 100 µM | [12] > 100 µM | [13] > 100 µM | [14] > 100 µM | [15] > 100 µM | [16] > 100 µM | [17] > 100 µM | [18] 34.4 µM | [19] > 100 µM
